Laboratory results taken from patent JP2010202587A, “プロトンポンプ阻害剤を含有する組成物” (Pola Chemical Industries Inc, priority 2009, dated 2010).

Experiments:
tyrosinase [チロシナ−ゼ] [1] = molecular target: T1, tyrosinase [チロシナ−ゼ] (Homo sapiens, UniProt P14679); settings: known from patent literature; cited from earlier work
T1 sequence (P14679 19-529): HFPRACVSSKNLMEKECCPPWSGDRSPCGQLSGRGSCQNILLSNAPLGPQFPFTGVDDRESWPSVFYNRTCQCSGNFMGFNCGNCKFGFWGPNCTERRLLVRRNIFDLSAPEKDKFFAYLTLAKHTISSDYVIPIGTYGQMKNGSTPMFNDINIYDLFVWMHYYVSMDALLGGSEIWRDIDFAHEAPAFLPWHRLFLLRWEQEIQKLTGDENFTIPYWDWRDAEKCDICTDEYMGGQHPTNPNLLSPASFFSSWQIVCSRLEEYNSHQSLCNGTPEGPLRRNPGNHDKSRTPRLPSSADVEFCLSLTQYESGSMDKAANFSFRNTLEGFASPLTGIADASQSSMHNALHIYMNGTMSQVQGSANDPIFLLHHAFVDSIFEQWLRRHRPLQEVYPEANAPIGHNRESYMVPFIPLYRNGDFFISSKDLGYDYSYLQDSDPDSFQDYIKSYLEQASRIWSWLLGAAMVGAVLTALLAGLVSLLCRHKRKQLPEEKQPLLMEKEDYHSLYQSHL

[2] = system: human normal melanocytes [ヒト正常メラノサイト]; experiment: Melanin production inhibition (2-[2-14C]thiouracil uptake, 4 days); format: cell-based; settings: in words, from Table 1
tyrosinase [チロシナ−ゼ] [3] = molecular target: T2, tyrosinase [チロシナ−ゼ] (Homo sapiens, UniProt P14679); experiment: Direct tyrosinase inhibition (human melanocyte extract, L-DOPA substrate); format: biochemical; settings: human normal melanocyte extract, 37℃, 15 min, in words, from Table 2
T2 construct: 溶解液を15000rpm、5分間遠心し、上清を回収し細胞抽出液とした; host or cells: normal human melanocytes (detergent lysate supernatant)

[4] = system: human normal melanocytes [ヒト正常メラノサイト]; experiment: Detection of acidification in melanosomes (proton pump inhibition; DAMP fluorescence, confocal laser microscope); format: cell-based; settings: Figure 2; for Colour of overlaid photograph (DAMP + tyrosinase): yellow = melanosome acidified

Molecule	Melanin production inhibition compared with the positive control (hydroquinone) [2]	Red staining showing the presence of tyrosinase ([4]; versus untreated control)	Colour of overlaid photograph (DAMP + tyrosinase) [4]	further results
CCCCc1ccc(O)cc1O [4−n−ブチルレゾルシノ−ル]				Tyrosinase inhibitory activity (tyrosinase [チロシナ−ゼ] [1]): 強力なチロシナ−ゼ阻害活性
Oc1ccc(O)cc1 [ハイドロキノン, reference compound]				Melanin production inhibition [2]: 優れたメラニン産生抑制作用
NC(=S)Nc1ccccc1 [フェニルチオウレア]				Direct tyrosinase inhibition (tyrosinase [チロシナ−ゼ] [3]): 顕著なチロシナ−ゼ直接阻害作用を示した
CC(C)=CCc1cc([C@@H]2CC(=O)c3c(O)c(CC=C(C)C)c(O)c(CC=C(C)C)c3O2)cc(O)c1O [化合物3, amorisin]	陽性対照と同等乃至はそれ以上のメラニン産生抑制作用	同程度		
Euchrenone a3 [化合物2]	優れたメラニン産生抑制作用		黄色より幾分オレンジ色がかっている	
Euchrenone a6 [化合物1]	優れたメラニン産生抑制作用	コントロ−ルと同程度	黄色を呈している	Green staining showing the degree of acidification (DAMP) ([4]; versus untreated control): 濃くなっており
